{"source": "patent US11911356B2", "about": "“Regulation of mutant TERT by BRAF V600E/map kinase pathway through FOS/GABP in human cancer” (THE JOHNS HOPKINS UNIVERSITY, priority 2017, dated 2024)", "key": {"[1]": {"test_system": "TERT expression", "assay": "TERT expression by qRT-PCR in human cancer cell lines treated with inhibitors", "format": "cell-based", "conditions": "for TERT expression: 0.5 uM PLX4032, 24 hours", "experimental": "FIG. 2A-2G. BRAF V600E/MAPK pathway regulated TERT expression. (FIG. 2A) TERT expression was analyzed by qRT-PCR in cells treated with 0.5 uM PLX4032 or 0.2 uM AZD6244 for 24 hours (upper panel). The corresponding levels of phosphorylated ERK (p-ERK), total ERK (t-ERK), and beta-actin were detected by Western blotting (lower panel). The relative TERT mRNA expression levels were normalized to the DMSO control group. (FIG. 2B) Luciferase reporting assay of TERT promoter activities in K1 cells treated with DMSO or PLX4032 (0.5 uM). (FIG. 2C, 2D) Specific shRNA against BRAF were used to knock down BRAF in thyroid cancer cell lines BCPAP and K1 and melanoma cell line A375. Scramble shRNA was used as control. Cells were then subjected to Western blotting (FIG. 2C) and qRT-PCR (FIG. 2D). (FIG. 2E) Sequencing of the BRAF exon-15 in the parental and heterozygous BRAF-V600E knock-in SW48 cells. BRAF V600E was knocked in on one allele of BRAF by rAAV technology through homologous recombination and Cre recombinase of the Neo cassette. (FIG. 2F) Western blotting analyses of phosphorylation of ERK (p-ERK), total ERK (t-ERK), BRAF, and beta-actin in the parental and BRAF-V600E knock-in SW48 cells. (FIG. 2G) TERT promoter luciferase reporter assay in SW48 cells with/without BRAF V600E knock-in. **P<0.01, ***P<0.001, by 2-tailed Student's t test. P values are for the comparison of the indicated condition with DMSO (FIG. 2B), scramble (FIG. 2D), or BRAF-WT groups (FIG. 2G). All the values represent the average standard deviation (SD) of triplicate samples from a typical experiment. All the experiments were performed three times with similar results.\nFIG. 3A-3C. MYC regulated TERT expression in a TERT promoter mutation-independent manner. (FIG. 3A) The four indicated cancer cell lines harboring BRAF V600E mutation were treated with 0.5 uM PLX4032 and/or 10 nM MYC-specific siRNA (siMYC) for 24 hours, which were then subjected to Western blotting (upper panel) and qRT-PCR (lower panel). The relative TERT mRNA expression was normalized to the control group. (FIG. 3B, 3C) Parental and BRAF V600E knock-in SW48 cells were treated with control siRNA (siControl) or MYC-specific siRNA (siMYC, 10 nM) for 48 h, followed by Western blotting (FIG. 3B) and luciferase reporter assays (FIG. 3C). *P<0.05, **P<0.01, ***P<0.001, by 2-tailed Student's t test. n.s., not significant. All the values represent the average standard deviation (SD) of triplicate samples from a typical experiment. Similar results were obtained in two additional independent experiments.\nFIG. 9A-9B. Summarized effects of PLX4032 (FIG. 9A) and AZD6244 (FIG. 9B) on TERT mRNA expression. Each bar represents the average+SD of the cells with the same genotypes as follows: BRAF-mut and TERT-mut cell lines: BCPAP, K1, OCUT1, A375, and M14; BRAF-mut and TERT-wt cell lines: SK-MEL-1, SK-MEL-3, and RKO; BRAF-wt and TERT-mut cell lines: TPC1, KAT18, C643, CHL-1, SK-MEL-2, and Mewo; BRAF-wt and TERT-wt cell lines: FB1, WRO, and HTORI3. Compared with the corresponding control of DMSO, **P<0.01, ***P<0.001, by independent t-test.\nThe BRAF V600E-specific inhibitor PLX4032 (#S1267) and the MEK1 inhibitor AZD6244 (#S1008) were purchased from Selleck Chemicals (Houston, TX), dissolved in DMSO with a stock concentration of 10 mM and stored at −20° C. PLX4032 and AZD6244 were used to treat cells for 24 hours at 0.5 μM and 0.2 μM, respectively, where indicated in the manuscript. DMSO was used as the vehicle control.\nTotal RNA was extracted from cultured cells using the TRIzol reagent (#15596-018; Ambion, Life Technologies, Carlsbad, CA) and reverse-transcribed to cDNA using the SuperScript III First-Strand Synthesis System (#18080-051; Invitrogen, Life Technologies, Carlsbad, CA). Gene expression was analyzed in triplicate using FastStart Universal SYBR Green Master with ROX (#04913850001; Roche Applied Science, Indianapolis, IN) on the Applied Biosystems 7900HT Fast Real-Time PCR System. […]"}, "[2]": {"test_system": "TERT promoter", "assay": "TERT promoter luciferase reporter assay in K1 cells", "format": "cell-based, human", "conditions": "K1 cells harboring BRAF V600E; PLX4032 0.5 uM", "experimental": "FIG. 2A-2G. BRAF V600E/MAPK pathway regulated TERT expression. (FIG. 2A) TERT expression was analyzed by qRT-PCR in cells treated with 0.5 uM PLX4032 or 0.2 uM AZD6244 for 24 hours (upper panel). The corresponding levels of phosphorylated ERK (p-ERK), total ERK (t-ERK), and beta-actin were detected by Western blotting (lower panel). The relative TERT mRNA expression levels were normalized to the DMSO control group. (FIG. 2B) Luciferase reporting assay of TERT promoter activities in K1 cells treated with DMSO or PLX4032 (0.5 uM). (FIG. 2C, 2D) Specific shRNA against BRAF were used to knock down BRAF in thyroid cancer cell lines BCPAP and K1 and melanoma cell line A375. Scramble shRNA was used as control. Cells were then subjected to Western blotting (FIG. 2C) and qRT-PCR (FIG. 2D). […]\nFor promoter activity assay, cells were seeded in triplicate into a 24-well plate and then transfected with 300 ng pGL3 plasmids containing the TERT, GAPBA, or GABPB promoter, together with 12 ng Renilla luciferase (pRL-TK) plasmid (normalizing control) using Lipofectamine 3000 (Invitrogen). At 24 hours after the transfection, cells were lysed and luciferase activities were measured using the Dual-Luciferase Reporter Assay System (Promega). Results were presented as relative luciferase activities, which were obtained by dividing firefly luciferase values with Renilla luciferase values for each set of reading."}}, "data": [{"smiles": "CCCS(=O)(=O)Nc1ccc(F)c(C(=O)c2c[nH]c3ncc(-c4ccc(Cl)cc4)cc23)c1F", "note": "[PLX4032]", "values": [{"measurement": "TERT expression", "setting": "[1]; RKO and SK-MEL-3 cells, wild-type TERT promoter", "value": "moderate level"}, {"measurement": "TERT expression", "setting": "[1]; all the cells harboring BRAF mutation (FIG. 3A)", "value": "decreased TERT expression"}, {"measurement": "TERT expression after siRNA knockdown of MYC", "setting": "[1]; cells harboring TERT promoter mutations, 0.5 uM PLX4032 with 10 nM siMYC, 24 hours", "value": "could further inhibit TERT expression"}, {"measurement": "TERT expression", "setting": "[1]; cells harboring both BRAF V600E and TERT promoter mutations", "value": "dramatically inhibited TERT expression"}, {"measurement": "TERT expression", "setting": "[1]; cells harboring the wild-type TERT promoter", "value": "limited effect"}, {"measurement": "TERT expression", "setting": "[1]; cells harboring wild-type BRAF", "value": "no inhibitory effect"}, {"measurement": "TERT expression", "setting": "[1]; wild-type BRAF cell lines, especially TERT mutant cells (KAT18, C643 and CHL-1)", "value": "increase in TERT expression"}, {"measurement": "activities of the mutated TERT promoter (C228T or C250T)", "setting": "[2]", "value": "dramatically reduced"}, {"measurement": "activity of the wild-type TERT promoter", "setting": "[2]", "value": "limited effect"}]}]}
